Experiment [1] has as its target T1, Monoglyceride lipase (Homo sapiens, UniProt Q99685).
T1 sequence (Q99685 whole entry): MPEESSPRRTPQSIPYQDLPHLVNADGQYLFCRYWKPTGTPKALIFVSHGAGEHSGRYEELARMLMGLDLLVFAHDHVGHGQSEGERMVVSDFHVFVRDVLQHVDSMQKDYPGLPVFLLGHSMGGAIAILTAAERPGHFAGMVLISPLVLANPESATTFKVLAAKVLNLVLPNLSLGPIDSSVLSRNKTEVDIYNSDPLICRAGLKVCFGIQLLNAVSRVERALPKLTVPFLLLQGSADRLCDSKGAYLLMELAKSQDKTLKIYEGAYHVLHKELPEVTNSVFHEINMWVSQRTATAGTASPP
Nature of the experiment: Inhibition of MAGL in human U937 cell homogenates using [3H]-2OG as substrate preincubated for 15 mins followed by substrate addition and measured after 15 mins by liquid scintillation counting method.

Experiment [2] concerns the target Fatty acid-binding protein 5 (Homo sapiens, UniProt Q01469). Kind of experiment: Displacement of NBD-Stearate from recombinant human FABP5 measured after 30 mins by fluorescence polarization assay. (In general: Fluorescence polarisation rises when a labelled molecule tumbles more slowly, as on binding a larger partner.)
Experiment [3] addresses Cannabinoid receptor 2 (Homo sapiens, UniProt P34972). Kind of experiment: Displacement of [3H]-CP55940 from recombinant human CB2 receptor measured after 2 hrs by liquid scintillation counting method. A general note: Loss of bound radioactivity is the signal in a displacement assay; it reports binding, not function.
Experiment [4] deals with U-937. Kind of experiment: Inhibition of [14C]-AEA uptake in human U937 cells preincubated for 15 mins followed by [14C]-AEA addition and measured after 5 mins by scintillation counting method. Type of experiment: functional, cell-based.
The target in experiment [5] is T2, Fatty-acid amide hydrolase 1 (Homo sapiens, UniProt O00519).
T2 sequence (O00519 whole entry): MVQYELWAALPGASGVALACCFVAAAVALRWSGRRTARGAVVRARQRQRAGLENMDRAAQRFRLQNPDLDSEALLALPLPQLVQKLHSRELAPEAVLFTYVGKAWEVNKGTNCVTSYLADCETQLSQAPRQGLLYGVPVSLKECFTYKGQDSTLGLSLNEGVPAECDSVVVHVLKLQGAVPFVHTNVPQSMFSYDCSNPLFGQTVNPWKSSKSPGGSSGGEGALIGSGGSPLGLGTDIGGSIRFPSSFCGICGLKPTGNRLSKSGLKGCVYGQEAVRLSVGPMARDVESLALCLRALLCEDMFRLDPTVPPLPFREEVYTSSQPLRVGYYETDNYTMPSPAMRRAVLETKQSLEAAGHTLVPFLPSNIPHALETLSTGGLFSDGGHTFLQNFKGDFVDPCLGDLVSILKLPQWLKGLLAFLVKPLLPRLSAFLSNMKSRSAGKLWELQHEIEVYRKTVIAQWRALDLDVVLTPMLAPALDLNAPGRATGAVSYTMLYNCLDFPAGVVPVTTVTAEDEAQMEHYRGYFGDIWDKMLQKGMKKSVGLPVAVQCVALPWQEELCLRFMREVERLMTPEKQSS
Kind of experiment: Inhibition of FAAH in human U937 cell homogenates using [14C]-AEA as substrate preincubated for 15 mins followed by substrate addition and measured after 15 mins by liquid scintillation counting method.

Experiment [6] deals with Cannabinoid receptor 1 (Homo sapiens, UniProt P21554). Nature of the experiment: Displacement of [3H]-CP55940 from recombinant human CB1 receptor measured after 2 hrs by liquid scintillation counting method.
Chain of Cannabinoid receptor 1 (P21554 whole entry): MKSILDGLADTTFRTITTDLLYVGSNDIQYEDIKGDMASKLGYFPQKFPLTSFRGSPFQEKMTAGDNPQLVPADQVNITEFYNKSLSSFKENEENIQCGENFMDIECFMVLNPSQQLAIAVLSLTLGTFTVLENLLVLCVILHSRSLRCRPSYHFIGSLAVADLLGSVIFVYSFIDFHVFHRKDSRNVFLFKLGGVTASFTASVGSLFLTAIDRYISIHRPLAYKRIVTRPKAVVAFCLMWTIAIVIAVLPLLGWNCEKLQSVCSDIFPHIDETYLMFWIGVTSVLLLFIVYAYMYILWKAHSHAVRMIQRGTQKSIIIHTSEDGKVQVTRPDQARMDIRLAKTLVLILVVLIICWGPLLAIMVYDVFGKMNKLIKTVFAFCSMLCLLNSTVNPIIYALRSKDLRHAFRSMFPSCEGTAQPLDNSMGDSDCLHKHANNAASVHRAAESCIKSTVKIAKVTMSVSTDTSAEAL
The target of experiment [7] is T3, Fatty-acid amide hydrolase 1 (Homo sapiens) (UniProt O00519).
T3 sequence (whole entry): T2 sequence (O00519 whole entry)
Nature of the experiment: Inhibition of FAAH in human U937 cell homogenates at 100 uM using [14C]-AEA as substrate preincubated for 15 mins followed by substrate addition and measured after 15 mins by liquid scintillation counting method relative to control.

Each structure is given as a SMILES string.

Chain of Fatty acid-binding protein 5 (Q01469 whole entry): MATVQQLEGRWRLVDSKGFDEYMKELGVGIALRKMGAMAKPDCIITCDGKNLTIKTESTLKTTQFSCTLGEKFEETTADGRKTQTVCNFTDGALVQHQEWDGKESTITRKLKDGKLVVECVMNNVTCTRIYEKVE
Chain of Cannabinoid receptor 2 (P34972 whole entry): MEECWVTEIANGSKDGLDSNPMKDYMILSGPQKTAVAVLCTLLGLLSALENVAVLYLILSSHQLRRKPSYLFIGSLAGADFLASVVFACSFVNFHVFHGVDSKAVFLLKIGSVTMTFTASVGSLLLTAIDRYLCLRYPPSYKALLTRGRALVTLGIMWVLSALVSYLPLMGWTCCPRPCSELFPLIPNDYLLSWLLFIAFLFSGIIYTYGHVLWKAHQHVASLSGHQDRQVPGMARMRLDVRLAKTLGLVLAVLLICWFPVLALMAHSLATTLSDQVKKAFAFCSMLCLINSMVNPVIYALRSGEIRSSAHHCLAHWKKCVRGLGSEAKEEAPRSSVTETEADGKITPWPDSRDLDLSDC

As usually defined, the Ki is the dissociation constant of the complex between target and ligand, obtained from inhibition or displacement. What is called EC50 is the concentration giving half of the maximal effect. Read a low EC50 as higher potency in that assay. For orientation: IC50 means the concentration that inhibits the measured activity by half. One may read the inhibition as the relative decrease from the control value, in per cent. Higher therefore signals strong suppression. For `CC(C)CNC(=O)/C=C/C=C/CCCCCC/C=C/c1ccc2c(c1)OCO2` [GUINEENSINE], the Ki in experiment [1] was greater than 100 µM; in experiment [2] it was greater than 100 µM; in experiment [3] it was 38.3 µM; in experiment [6], greater than 20 µM. In experiment [4], this molecule returned an Efficacy of 65%. Besides, the EC50 in experiment [4] (Homo sapiens, U-937) was found to be 0.29 µM. Moreover, the IC50 in experiment [5] was 46.8 µM. Moreover, in experiment [7], the inhibition was 59%.

Source of the values: ChEMBL document CHEMBL4422692, “Plant-Based Modulators of Endocannabinoid Signaling” (J Nat Prod, 2019).
